This note sets out measurements from US20220411473A1, “LYSIN-ANTIMICROBIAL PEPTIDE (AMP) POLYPEPTIDE CONSTRUCTS, LYSINS, ISOLATED POLYNUCLEOTIDES ENCODING SAME AND USES THEREOF” (priority 2019, published 2022).

Read-outs that look alike come from different tables or passages of the source.

The subject of test [1] is carbapenem-resistant P. aeruginosa strains. The class given is cell-based, Pseudomonas aeruginosa. The note with it: for susceptibility category, antibiotic alone: Table 22, WC-452. As to the method: Such resensitization may be determined by combining the present lysins or lysin-AMP polypeptide constructs with an antibiotic in a checkerboard assay as described herein. Antibiotic-resistant bacteria, such as carbapenem-resistant P. aeruginosa, are added to the lysin or lysin-AMP polypeptide construct combination. […] See Clinical and Laboratory Standards Institute (CLSI), CLSI. […] M100 Performance Standards for Antimicrobial Susceptibility Testing; 29th Edition. Clinical and Laboratory Standards Institute, Wayne, Pa., which is herein incorporated by reference in its entirety.
Up to seven carbapenem-resistant isolates were assessed. […] See Clinical and Laboratory Standards Institute (CLSI), CLSI. […] M100 Performance Standards for Antimicrobial Susceptibility Testing; 29th Edition. Clinical and Laboratory Standards Institute, Wayne, Pa.

For test [2], the system named is Staphylococcus aureus. The experiment in a line: Daptomycin MIC in […] (positive control). The class given is cell-based. The note with it: S. aureus.
Experimental: As a positive control, the impact of […] ® on daptomycin (DAP) activity against Staphylococcus aureus was also tested.
The mark [3] stands for this setting: Table 18, isolates PA19-PA24 and WC-452.
The mark [4] stands for this setting: Table 19, isolates PA19-PA24 and WC-452.
For susceptibility category, antibiotic alone in this document: key: (R) = resistant; (S) = sensitive.
For susceptibility category, imipenem alone in this document: key: (R) = resistant; (S) = sensitive.
For susceptibility category, imipenem in combination with GN121 in this document: key: (R) = resistant; (S) = sensitive.
For susceptibility category, imipenem in combination with GN123 in this document: key: (R) = resistant; (S) = sensitive.
For susceptibility category, meropenem alone in this document: key: (R) = resistant; (S) = sensitive.
For susceptibility category, meropenem in combination with GN123 in this document: key: (R) = resistant; (S) = sensitive.

As for `C[C@@H](O)[C@H]1C(=O)N2C(C(=O)O)=C(SCCN=CN)C[C@H]12` [Imipenem, imipenem], the “susceptibility category, imipenem alone” value in test [1] (setting [3]) is given as “R”; in test [1] (Table 20, isolates PA19-PA24), “R”. Also, the “susceptibility category, imipenem in combination with GN123” value in test [1] (setting [3]) is on record as “(S)”. Also, the “susceptibility category, imipenem in combination with GN121” value in test [1] (Table 20, isolates PA19-PA24) is “(S)”. Also, the “susceptibility category, antibiotic alone” value in test [1] is “R”. In addition, the “MIC Combination” value in test [1] (isolate PA19, imipenem + GN121) amounted to 1 mg/L; in test [1] (isolate PA19, imipenem + GN123) it was 0.5 mg/L; in test [1] (isolate PA20, imipenem + GN121), 0.5 mg/L; in test [1] (isolate PA20, imipenem + GN123), 1 mg/L; in test [1] (isolate PA21, imipenem + GN121), 1 mg/L; in test [1] (isolate PA21, imipenem + GN123), 0.5 mg/L. Moreover, the “MIC Combination” value in test [1] (isolate PA22, imipenem + GN121) stood at 2 mg/L; in test [1] (isolate PA22, imipenem + GN123) it was 2 mg/L; in test [1] (isolate PA23, imipenem + GN123), 0.25 mg/L; in test [1] (isolate PA24, imipenem + GN121), 1 mg/L; in test [1] (isolate PA24, imipenem + GN123), 2 mg/L; in test [1] (isolate WC-452, imipenem + GN123), 1 mg/L.
Turning to `C[C@@H](O)[C@H]1C(=O)N2C(C(=O)O)=C(S[C@@H]3CN[C@H](C(=O)N(C)C)C3)[C@H](C)[C@H]12` [Meropenem, meropenem], the “susceptibility category, meropenem alone” value is “R” in test [1] (setting [4]); “R” in test [1] (Table 21, isolates PA19-PA24 and WC-452). In addition, the “susceptibility category, meropenem in combination with GN123” value in test [1] (setting [4]) is “(S)”. Also, the “susceptibility category, antibiotic alone” value in test [1] is given as “R”. Further, the “MIC Combination” value stood at 1 mg/L in test [1] (isolate PA19, meropenem + GN121); 0.5 mg/L in test [1] (isolate PA19, meropenem + GN123); 1 mg/L in test [1] (isolate PA20, meropenem + GN121); 0.5 mg/L in test [1] (isolate PA20, meropenem + GN123); 2 mg/L in test [1] (isolate PA21, meropenem + GN121); 1 mg/L in test [1] (isolate PA21, meropenem + GN123). Besides, the “MIC Combination” value in test [1] (isolate PA22, meropenem + GN121) is 1 mg/L; in test [1] (isolate PA22, meropenem + GN123) it was 1 mg/L; in test [1] (isolate PA23, meropenem + GN121), 2 mg/L; in test [1] (isolate PA23, meropenem + GN123) it was 0.5 mg/L; in test [1] (isolate PA24, meropenem + GN121), 1 mg/L; in test [1] (isolate PA24, meropenem + GN123), 2 mg/L. For the same compound, the “MIC Combination” value in test [1] (isolate WC-452, meropenem + GN121) was found to be 1 mg/L; in test [1] (isolate WC-452, meropenem + GN123) it was 1 mg/L.
Consider daptomycin, for which the “fold increase in MIC” value is reported as 32 fold in test [2] (0.09% SURVANTA), 32 fold in test [2] (0.19% SURVANTA), 128 fold in test [2] (1.56% SURVANTA) and 128 fold in test [2] (3.15% SURVANTA).
